Results taken from patent publication US7579322B2, “Compositions and methods for promoting myocardial and peripheral angiogenesis” (Zimmer Orthobiologics, Inc., priority 2001, dated 2009).
Ends that are not written are not given here.

Tests used:
rat wound healing model = details: under certain conditions; cited from earlier work
[1] = system: human aortic endothelial cells; assay: In vitro cell migration assay (chemotaxis tray / modified Boyden chamber), endothelial cells; type: cell-based; details: for migration of human aortic endothelial cells: compared to negative control / scramble peptides, 4 hours incubation
Method: (§1) The ability of IGD-motif peptides according to the present invention to promote cell migration of human endothelial and smooth muscle cells, which are processes characteristic of angiogenesis, was evaluated by conducting cell migration assays for the peptides of SEQ ID NOS 1 and 2, and a scramble of the IGD peptide characterized by the DIG sequence. A capped version of the scramble characterized by the GGDIGGG (SEQ ID NO:7) sequence was also tested.
(§2) Chemotaxis trays (Chemo Tx disposable migration chamber, 6 mm diameter, 300 μl/well, 96 wells with 8 μm filter membranes from Neuro Probe, Inc., Gaithersville, Md.) for evaluating cell migration of the peptides were sterilized by placing the trays under UV light overnight. Further operations with the membrane were carried out under aseptic conditions. The filter membranes were loaded with gelatin to provide a suitable environment for the cells testing by soaking in 3% acetic acid overnight and then for 2 hours in 0.1 mg/ml gelatin. They were then rinsed in sterile water and allowed to air dry. Such membranes may be stored at room temperature for up to 1 month.
The cells to be used in the assay (endothelial cells or smooth muscle cells) were starved for 24 hours before use in appropriate culture media containing 0.1% Fetal Bovine Serum (“FBS”) instead of the customary 10% FBS serum, and 1× penicillin-streptomycin antibiotics. The wells of the 96 well chamber of the chemotaxis unit were filled with media containing 0.1% serum alone or 0.1% serum and the test material (control or chemoattractant respectively). The filter membrane was positioned over the plate, aligning the holes in the corners of the frame with the four pins on the microplate, and the membrane was snapped into place making sure that the media in the wells touched the membrane completely. Fifty (50) μl of cell suspension in the starvation-media, at a concentration of 4×10^4 viable cells per charge were plated onto each site (over each well). The plate was incubated at 37° C. in an atmosphere of 5% CO2 for 4 hours.
(§3) After incubation the lid was removed and with the filter still in place the cells on the upper surface of the membrane were gently wiped off and washed by carefully flushing the top surface of the filter with media by holding the plate with filter at a 45° angle over a container. The cells on the undersurface of the membrane were then fixed in methanol (˜20 minutes) and stain with Diff-Quik Staining Set. The membrane was then allowed to dry and the number of cells that migrated through the filter pores was determined by counting the number in a field under a light microscope.

[2] = system: human smooth muscle cells; assay: In vitro cell migration assay (chemotaxis tray), smooth muscle cells; type: cell-based; details: compared to controls; 4 hours incubation
Method: as §1, §2
The cells to be used in the assay (endothelial cells or smooth muscle cells) were starved for 24 hours before use in appropriate culture media containing 0.1% Fetal Bovine Serum (“FBS”) instead of the customary 10% FBS serum, and 1× penicillin-streptomycin antibiotics. The wells of the 96 well chamber of the chemotaxis unit were filled with media containing 0.1% serum alone or 0.1% serum and the test material (control or chemoattractant respectively). […]
as §3, with “The cells on the undersurface of the membrane were then fixed in methanol (˜20 minutes) and stain with Diff-Quik Staining Set.” left out

[3] = system: human aortic endothelial cells; assay: In vitro cell proliferation assay (CyQuant); type: cell-based; details: for proliferation of human aortic endothelial cells: compared to controls, 48 hours, two different concentrations
Method: The capacity of IGD-motif peptides according to the present invention to promote […] of human aortic endothelial cells was evaluated by conducting in vitro cell proliferation assays for the peptide of SEQ ID NOS 1 and 2, the DIG scramble peptide, and the capped version of the scramble, GGDIGGG (SEQ ID NO:7). Human aortic endothelial cells grown to ˜95% confluency were seeded (5000 cells/well) in growth medium for four hours to allow cells to adhere. The cells were then transferred to the starvation medium described in Example 1 and starved for about 18 hours. The cells were then transferred to starvation medium containing the test peptide, and the cells were allowed to proliferate for an additional 48 hours. The medium was then removed and the wells were washed with PBS. The cells were then subjected to a single freeze-thaw cycle. CyQuant reagent (Molecular Probes, Eugene, Oreg.) was then added to the cells according to the manufacturer's instructions and the cells incubated for 5 minutes in the dark. The intensity of the color—which is directly proportional to the number of cells—is read at an excitation wavelength of 485 nm and the emission wavelength set at 535 nm.

[4] = system: quail chorioallantoic membrane (CAM); assay: Quail chorioallantoic membrane (CAM) angiogenesis assay; type: in vivo, Japanese quail (cotumix cotumix japonica); details: for angiogenesis / increase in blood vessels in quail CAM: 24 hours incubation, compared to controls / scramble peptides
Method: The activity of IGD-motif peptides for inducing migration and proliferation in endothelial or smooth muscle cells in an in vitro quail chorioallantoic membrane (CAM) model was assayed in a similar manner to that described by Parsons-Wingerter et al., Microvascular Research 55:201-214 (1998), the disclosure of which is hereby incorporated herein by reference. Briefly, fertilized Japanese quail eggs (cotumix cotumix japonica) were opened onto petri dishes on day 3 post-incubation. After 7 days of culture, the four IGD-motif peptides tested in Examples 1 and 2 (IGD, GGIGD (residues 1-5 of SEQ ID NO:2), DIG, GGDIGGG (SEQ ID NO: 7)) each dissolved in 1% polyvinyl pyrrolidine prewarmed to 37° C., were distributed evenly onto the surface of a CAM in separate petri dishes. After 24 hours of incubation, the CAM's were fixed, dissected and photographed at 10× magnification to visualize the arterial vascular tree, including endstage vessels. Digital images of triplicate CAM specimens were acquired at 10× magnification in grayscale, binarized to black-and-white, and skeletonized. The vessel branching pattern was analyzed and quantified by the fractal dimension.

dermal fibroblasts = details: cited from earlier work

Row | Substance | fibroblast migration (rat wound healing model) | vessel number (rat wound healing model) | migration of human aortic endothelial cells compared to the uncapped peptide ([1]; at a 10-fold lower concentration, FIG. 1A) | migration of human aortic endothelial cells [1] | migration of human aortic endothelial cells ([1]; listed as SEQ ID NO. 2) | cell migration of human smooth muscle cells [2] | proliferation response relative to the uncapped tripeptide ([3]; FIG. 2) | proliferation of human aortic endothelial cells [3] | angiogenesis / increase in blood vessels in quail CAM [4] | angiogenesis / increase in blood vessels in quail CAM ([4]; listed as capped peptide) | blood vessel increase in quail CAM compared to the uncapped peptide ([4]; at equivalent concentrations, FIG. 3A) | optimal concentration for migration of human aortic endothelial cells ([1]; FIG. 1A) [μm] | migration of human aortic endothelial cells ([1]; listed as IGD tripeptide) | migration of human aortic endothelial cells ([1]; listed as SEQ ID NO. 1) | angiogenesis / increase in blood vessels in quail CAM ([4]; listed as uncapped peptide) | cell migration of dermal fibroblasts (dermal fibroblasts)
1 | Ile-Gly-Asp-Ser (IGDS; Cell-attachment-promoting peptide) | increase | increase |  |  |  |  |  |  |  |  |  |  |  |  |  | 
2 | GGIGDGG (not fully specified) [Gly-Gly-Ile-Gly-Asp-Gly-Gly] |  |  | better migration compared to the uncapped peptide | increased migratory response | promoted cell migration | promoted cell migration | nearly twice that of the uncapped tripeptide | promoted cell proliferation | promoted angiogenesis | increase in blood vessels | better than the uncapped peptide |  |  |  |  | 
3 | Ile-Gly-Asp (IGD; Cell-attachment-promoting peptide) |  |  |  | increased migratory response |  | promoted cell migration |  | promoted cell proliferation | promoted angiogenesis |  |  | 100 | dose dependent effect | promoted cell migration | increase in blood vessels | can induce cell migration
4 | GGDIGGG (not fully specified) [reference compound] |  |  |  | Neither the DIG scramble nor the capped GGDIGGG scramble (SEQ ID NO:7) showed cell migration significantly greater than controls |  | Neither the DIG scramble nor the capped GGDIGGG scramble (SEQ ID NO:7) showed cell migration significantly greater than controls |  | Neither the DIG scramble nor the capped GGDIGGG scramble (SEQ ID NO:7), in contrast, showed cell migration significantly greater than controls | neither the DIG scramble nor the GGDIGGG (SEQ ID NO:7) capped scramble promoted angiogenesis significantly better than controls |  |  |  |  |  |  | 
